Experiments:
GTPase KRas [G12D] = GTPase KRas [G12D] (Homo sapiens, UniProt P01116, G12D); test: TR-FRET Assay
Protocol: Compounds of interest were prepared in a dose-response titration in DMSO, and 80 nL were added via Labcyte Echo to each well of a 384-well plate (Perkin Elmer 6008280). The His-tagged KRAS G12D protein (Amgen) was diluted to 20 nM in Assay Buffer (20 mM HEPES, pH 7.4, 10 mM MgCl2, 50 mM NaCl, 0.1% BSA, 0.01% Tween-20, 10 μM GDP) and 2 μL was added to the appropriate wells of the 384-well plate. The plate was incubated for 30 minutes at room temperature. Biotinylated KRPep-2d substrate (Amgen) was diluted to 20 nM in Assay Buffer and 2 μL was added to all wells and incubated for 1 hour at room temperature. Detection Reagent (0.4 nM LANCE Eu-W1024 Anti-6×His (Perkin Elmer AD0401), 5 nM streptavidin-d2 (Cisbio 610SADLA)) was prepared in Assay Buffer, then 4 μL was added to the plate and incubated for 1 hour at room temperature. Plates were read using PerkinElmer EnVision (ex: 320 nm, em1: 665 nm, em2: 615 nm) and em1/em2 data was used to generate curve fits using a 4-parameter logistic model to calculate IC50 values.

GTPase KRas [G12D,C118A] = GTPase KRas [G12D,C118A] (Homo sapiens, UniProt P01116, C118A/G12D); test: Coupled Nucleotide Exchange Assay
Protocol: Following compound pre-incubation, purified SOS protein (aa 564-1049) and GTP (Roche 10106399001) were added to the assay wells and incubated for an additional 30 min. To determine the extent of inhibition of SOS-mediated nucleotide exchange, purified GST-tagged cRAF (aa 1-149), nickel chelate AlphaLISA acceptor beads (PerkinElmer AL108R), and AlphaScreen glutathione donor beads (PerkinElmer 6765302) were added to the assay wells and incubated for 10 minutes. The assay plates were then read on a PerkinElmer EnVision Multilabel Reader, using AlphaScreen technology, and data were analyzed using a 4-parameter logistic model to calculate IC50 values.

Sequence of GTPase KRas [G12D] (P01116 whole entry G12D): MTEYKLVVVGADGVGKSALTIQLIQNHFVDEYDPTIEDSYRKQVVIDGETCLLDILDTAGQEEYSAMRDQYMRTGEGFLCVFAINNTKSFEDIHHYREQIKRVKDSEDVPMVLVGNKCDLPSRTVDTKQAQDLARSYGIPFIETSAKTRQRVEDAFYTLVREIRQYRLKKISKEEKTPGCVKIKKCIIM
Sequence of GTPase KRas [G12D,C118A] (P01116 whole entry G12D/C118A, looked up, the tested form may be a part): as the sequence (P01116 whole entry G12D) above, with C118A counted along it

IC50 (GTPase KRas [G12D]) [nM]	IC50 (GTPase KRas [G12D,C118A]) [nM]	Compound
3	2	Fc1c2ncc3c(nc(OC[C@@]45CCCN4C[C@H](F)C5)nc13)N1CCC[C@@H](CSCCCCc3c(Cl)cc4[nH]ncc4c3-2)C1 [US20240294551, Example 143]
2	1	Fc1c2ncc3c(nc(OC[C@@]45CCCN4C[C@H](F)C5)nc13)N1CCC[C@H](C1)c1coc(n1)CCCc1c(Cl)cc3[nH]ncc3c1-2 [US20240294551, Example 157]
4	2	CN(C)CC1(COc2nc3c4cnc(c(F)c4n2)-c2c(c(Cl)cc4[nH]ncc24)CCCOC(=O)O[C@@H]2COCCN3C2)CC1 [US20240294551, Example 195]
3	2	Cc1cc2[nH]ncc2c2c1CCCOC(=O)O[C@@H]1COCCN(C1)c1nc(OC[C@@]34CCCN3C[C@H](F)C4)nc3c(F)c-2c(F)cc13 [US20240294551, Example 102]
5	1	Fc1c2ncc3c(nc(OC[C@@]45CCCN4C[C@H](F)C5)nc13)N1CCOC[C@H](C1)c1noc(n1)CCCc1c(Cl)cc3[nH]ncc3c1-2 [US20240294551, Example 381]
10	6	O[C@@H]1CCOCCc2c(Cl)cc3[nH]ncc3c2-c2ncc3c(nc(OC[C@@]45CCCN4C[C@H](F)C5)nc3c2F)N2CCC[C@@H]1C2 [US20240294551, Example 404]
4	2	Cc1cc2[nH]ncc2c2c1CCCOC(=O)O[C@@H]1COCCN(C1)c1nc(OC[C@@]34CCCN3C[C@H](F)C4)nc3c(F)c-2ccc13 [US20240294551, Example 192]
20	13	Cc1cc2[nH]ncc2c2c1CCCOC(=O)N1CC[C@@H]3CCN(C[C@@H]31)c1nc(OC[C@@]34CCCN3C[C@H](F)C4)nc3c(F)c-2ncc13 (mixture of isomers) [US20240294551, Example 75]

From BindingDB's records for patent US20240294551 (Amgen, 2024)
